From patent US9113629B2, “4-amino-6-(4-substituted-phenyl)-picolinates and 6-amino-2-(4-substituted-phenyl)-pyrimidine-4-carboxylates and their use as herbicides” (DOW AGROSCIENCES LLC, priority 2013, dated 2015)

test system: Key Broadleaf Weed and Crop Species; test: Post-emergent Test II herbicidal activity (Table 5); type: in vivo; details: post-emergence, 336 h; ABUTH: velvetleaf (Abutilon theophrasti); application rate 70 g ai/ha; 14 days after application; read-out: Visual Growth Reduction (%) 14 Days After Application, ABUTH
Method in brief: (§1)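 Post-emergence foliar spray, 187 L/ha, track sprayer at 43 cm above canopy. Carrier: acetone/water/IPA/DMSO/Atplus 411F/Triton X-155. Plants at 1st–2nd true leaf; subirrigated afterwards; % injury scored visually at 14 d.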

**Q.** For `COC(=O)c1nc(-c2ccc(I)cc2F)nc(N)c1OC` [Compound 82], which pest or weed control at 70 g/ha is on record?
**A.** The pest or weed control at 70 g/ha was 95 to 100%.

same assay, conditions: post-emergence, 336 h; ABUTH: velvetleaf (Abutilon theophrasti); application rate 140 g ai/ha; 14 days after application; read-out: Visual Growth Reduction (%) 14 Days After Application, ABUTH

**Q.** For `COC(=O)c1nc(-c2ccc(I)cc2F)nc(N)c1OC` [Compound 82], which pest or weed control at 140 g/ha is on record?
**A.** The pest or weed control at 140 g/ha was 95 to 100%.

same assay, conditions: post-emergence, 336 h; AMARE: redroot pigweed (Amaranthus retroflexus); application rate 70 g ai/ha; 14 days after application; read-out: Visual Growth Reduction (%) 14 Days After Application, AMARE

**Q.** With `COC(=O)c1nc(-c2ccc(I)cc2F)nc(N)c1OC` [Compound 82] as the compound, how does the pest or weed control at 70 g/ha read?
**A.** Its pest or weed control at 70 g/ha is 95 to 100%.

same assay, conditions: post-emergence, 336 h; AMARE: redroot pigweed (Amaranthus retroflexus); application rate 140 g ai/ha; 14 days after application; read-out: Visual Growth Reduction (%) 14 Days After Application, AMARE

**Q.** With `COC(=O)c1nc(-c2ccc(I)cc2F)nc(N)c1OC` [Compound 82] as the compound, how does the pest or weed control at 140 g/ha read?
**A.** The pest or weed control at 140 g/ha was 95 to 100%.

same assay, conditions: post-emergence, 336 h; BRSNN: oilseed-rape, canola (Brassica napus); application rate 70 g ai/ha; 14 days after application; read-out: Visual Growth Reduction (%) 14 Days After Application, BRSNN

**Q.** Which pest or weed control at 70 g/ha does the source give for `COC(=O)c1nc(-c2ccc(I)cc2F)nc(N)c1OC` [Compound 82] here?
**A.** Its pest or weed control at 70 g/ha is 85 to 94%.

same assay, conditions: post-emergence, 336 h; BRSNN: oilseed-rape, canola (Brassica napus); application rate 140 g ai/ha; 14 days after application; read-out: Visual Growth Reduction (%) 14 Days After Application, BRSNN

**Q.** For `COC(=O)c1nc(-c2ccc(I)cc2F)nc(N)c1OC` [Compound 82], which pest or weed control at 140 g/ha is on record?
**A.** The pest or weed control at 140 g/ha was 85 to 94%.

same assay, conditions: post-emergence, 336 h; CHEAL: lambsquarters (Chenopodium album); application rate 70 g ai/ha; 14 days after application; read-out: Visual Growth Reduction (%) 14 Days After Application, CHEAL

**Q.** For `COC(=O)c1nc(-c2ccc(I)cc2F)nc(N)c1OC` [Compound 82], which pest or weed control at 70 g/ha is on record?
**A.** Its pest or weed control at 70 g/ha is 85 to 94%.

same assay, conditions: post-emergence, 336 h; CHEAL: lambsquarters (Chenopodium album); application rate 140 g ai/ha; 14 days after application; read-out: Visual Growth Reduction (%) 14 Days After Application, CHEAL

**Q.** For `COC(=O)c1nc(-c2ccc(I)cc2F)nc(N)c1OC` [Compound 82], which pest or weed control at 140 g/ha is on record?
**A.** The pest or weed control at 140 g/ha was 95 to 100%.

same assay, conditions: post-emergence, 336 h; EPHHL: wild poinsettia (Euphorbia heterophylla); application rate 70 g ai/ha; 14 days after application; read-out: Visual Growth Reduction (%) 14 Days After Application, EPHHL

**Q.** For `COC(=O)c1nc(-c2ccc(I)cc2F)nc(N)c1OC` [Compound 82], which pest or weed control at 70 g/ha is on record?
**A.** The pest or weed control at 70 g/ha was 95 to 100%.

same assay, conditions: post-emergence, 336 h; EPHHL: wild poinsettia (Euphorbia heterophylla); application rate 140 g ai/ha; 14 days after application; read-out: Visual Growth Reduction (%) 14 Days After Application, EPHHL

**Q.** With `COC(=O)c1nc(-c2ccc(I)cc2F)nc(N)c1OC` [Compound 82] as the compound, how does the pest or weed control at 140 g/ha read?
**A.** Its pest or weed control at 140 g/ha is 95 to 100%.

same assay, conditions: post-emergence, 336 h; HELAN: sunflower (Helianthus annuus); application rate 70 g ai/ha; 14 days after application; read-out: Visual Growth Reduction (%) 14 Days After Application, HELAN

**Q.** Which pest or weed control at 70 g/ha does the source give for `COC(=O)c1nc(-c2ccc(I)cc2F)nc(N)c1OC` [Compound 82] here?
**A.** The pest or weed control at 70 g/ha was 95 to 100%.

same assay, conditions: post-emergence, 336 h; HELAN: sunflower (Helianthus annuus); application rate 140 g ai/ha; 14 days after application; read-out: Visual Growth Reduction (%) 14 Days After Application, HELAN

**Q.** With `COC(=O)c1nc(-c2ccc(I)cc2F)nc(N)c1OC` [Compound 82] as the compound, how does the pest or weed control at 140 g/ha read?
**A.** Its pest or weed control at 140 g/ha is 95 to 100%.

same assay, conditions: post-emergence, 336 h; VIOTR: wild pansy (Viola tricolor); application rate 70 g ai/ha; 14 days after application; read-out: Visual Growth Reduction (%) 14 Days After Application, VIOTR

**Q.** Which pest or weed control at 70 g/ha does the source give for `COC(=O)c1nc(-c2ccc(I)cc2F)nc(N)c1OC` [Compound 82] here?
**A.** Its pest or weed control at 70 g/ha is 60 to 74%.

same assay, conditions: post-emergence, 336 h; VIOTR: wild pansy (Viola tricolor); application rate 140 g ai/ha; 14 days after application; read-out: Visual Growth Reduction (%) 14 Days After Application, VIOTR

**Q.** Which pest or weed control at 140 g/ha does the source give for `COC(=O)c1nc(-c2ccc(I)cc2F)nc(N)c1OC` [Compound 82] here?
**A.** The pest or weed control at 140 g/ha was 75 to 84%.

test system: Key Grass and Sedge Weeds as well as Grass Crops; test: Post-emergent Test II herbicidal activity (Table 6); type: in vivo; details: post-emergence, 336 h, CYPES: yellow nutsedge (Cyperus esculentus), 70 g ai/ha, read-out: Visual Growth Reduction (%) 14 Days After Application, CYPES
Method in brief: as §1

**Q.** Which pest or weed control at 70 g/ha does the source give for `COC(=O)c1nc(-c2ccc(I)cc2F)nc(N)c1OC` [Compound 82] here?
**A.** Its pest or weed control at 70 g/ha is 95 to 100%.

same assay, conditions: post-emergence, 336 h, CYPES: yellow nutsedge (Cyperus esculentus), 140 g ai/ha, read-out: Visual Growth Reduction (%) 14 Days After Application, CYPES

**Q.** With `COC(=O)c1nc(-c2ccc(I)cc2F)nc(N)c1OC` [Compound 82] as the compound, how does the pest or weed control at 140 g/ha read?
**A.** The pest or weed control at 140 g/ha was 95 to 100%.

same assay, conditions: post-emergence, 336 h, DIGSA: crabgrass (Digitaria sanguinalis), 70 g ai/ha, read-out: Visual Growth Reduction (%) 14 Days After Application, DIGSA

**Q.** With `COC(=O)c1nc(-c2ccc(I)cc2F)nc(N)c1OC` [Compound 82] as the compound, how does the pest or weed control at 70 g/ha read?
**A.** Its pest or weed control at 70 g/ha is 0 to 29%.

same assay, conditions: post-emergence, 336 h, DIGSA: crabgrass (Digitaria sanguinalis), 140 g ai/ha, read-out: Visual Growth Reduction (%) 14 Days After Application, DIGSA

**Q.** With `COC(=O)c1nc(-c2ccc(I)cc2F)nc(N)c1OC` [Compound 82] as the compound, how does the pest or weed control at 140 g/ha read?
**A.** Its pest or weed control at 140 g/ha is 0 to 29%.

same assay, conditions: post-emergence, 336 h, ECHCG: barnyardgrass (Echinochloa crus-galli), 70 g ai/ha, read-out: Visual Growth Reduction (%) 14 Days After Application, ECHCG

**Q.** Which pest or weed control at 70 g/ha does the source give for `COC(=O)c1nc(-c2ccc(I)cc2F)nc(N)c1OC` [Compound 82] here?
**A.** Its pest or weed control at 70 g/ha is 45 to 59%.

same assay, conditions: post-emergence, 336 h, ECHCG: barnyardgrass (Echinochloa crus-galli), 140 g ai/ha, read-out: Visual Growth Reduction (%) 14 Days After Application, ECHCG

**Q.** With `COC(=O)c1nc(-c2ccc(I)cc2F)nc(N)c1OC` [Compound 82] as the compound, how does the pest or weed control at 140 g/ha read?
**A.** The pest or weed control at 140 g/ha was 85 to 94%.

same assay, conditions: post-emergence, 336 h, ORYSA: rice (Oryza sativa), crop, 70 g ai/ha, read-out: Visual Growth Reduction (%) 14 Days After Application, ORYSA

**Q.** With `COC(=O)c1nc(-c2ccc(I)cc2F)nc(N)c1OC` [Compound 82] as the compound, how does the pest or weed control at 70 g/ha read?
**A.** The pest or weed control at 70 g/ha was 0 to 29%.

same assay, conditions: post-emergence, 336 h, ORYSA: rice (Oryza sativa), crop, 140 g ai/ha, read-out: Visual Growth Reduction (%) 14 Days After Application, ORYSA

**Q.** For `COC(=O)c1nc(-c2ccc(I)cc2F)nc(N)c1OC` [Compound 82], which pest or weed control at 140 g/ha is on record?
**A.** Its pest or weed control at 140 g/ha is 0 to 29%.

same assay, conditions: post-emergence, 336 h, SETFA: giant foxtail (Setaria faberi), 70 g ai/ha, read-out: Visual Growth Reduction (%) 14 Days After Application, SETFA

**Q.** For `COC(=O)c1nc(-c2ccc(I)cc2F)nc(N)c1OC` [Compound 82], which pest or weed control at 70 g/ha is on record?
**A.** The pest or weed control at 70 g/ha was 0 to 29%.

same assay, conditions: post-emergence, 336 h, SETFA: giant foxtail (Setaria faberi), 140 g ai/ha, read-out: Visual Growth Reduction (%) 14 Days After Application, SETFA

**Q.** With `COC(=O)c1nc(-c2ccc(I)cc2F)nc(N)c1OC` [Compound 82] as the compound, how does the pest or weed control at 140 g/ha read?
**A.** The pest or weed control at 140 g/ha was 0 to 29%.

same assay, conditions: post-emergence, 336 h, SORVU: grain sorghum (Sorghum vulgare), 70 g ai/ha, read-out: Visual Growth Reduction (%) 14 Days After Application, SORVU

**Q.** With `COC(=O)c1nc(-c2ccc(I)cc2F)nc(N)c1OC` [Compound 82] as the compound, how does the pest or weed control at 70 g/ha read?
**A.** The pest or weed control at 70 g/ha was 0 to 29%.

same assay, conditions: post-emergence, 336 h, SORVU: grain sorghum (Sorghum vulgare), 140 g ai/ha, read-out: Visual Growth Reduction (%) 14 Days After Application, SORVU

**Q.** For `COC(=O)c1nc(-c2ccc(I)cc2F)nc(N)c1OC` [Compound 82], which pest or weed control at 140 g/ha is on record?
**A.** The pest or weed control at 140 g/ha was 45 to 59%.

same assay, conditions: post-emergence, 336 h, TRZSS (wheat, Triticum aestivum), crop, 70 g ai/ha, read-out: Visual Growth Reduction (%) 14 Days After Application, TRZSS

**Q.** With `COC(=O)c1nc(-c2ccc(I)cc2F)nc(N)c1OC` [Compound 82] as the compound, how does the pest or weed control at 70 g/ha read?
**A.** The pest or weed control at 70 g/ha was 30 to 44%.

same assay, conditions: post-emergence, 336 h, TRZSS (wheat, Triticum aestivum), crop, 140 g ai/ha, read-out: Visual Growth Reduction (%) 14 Days After Application, TRZSS

**Q.** For `COC(=O)c1nc(-c2ccc(I)cc2F)nc(N)c1OC` [Compound 82], which pest or weed control at 140 g/ha is on record?
**A.** Its pest or weed control at 140 g/ha is 30 to 44%.

same assay, conditions: post-emergence, 336 h, ZEAMX: maize, corn (Zea mays), crop, 70 g ai/ha, read-out: Visual Growth Reduction (%) 14 Days After Application, ZEAMX

**Q.** With `COC(=O)c1nc(-c2ccc(I)cc2F)nc(N)c1OC` [Compound 82] as the compound, how does the pest or weed control at 70 g/ha read?
**A.** Its pest or weed control at 70 g/ha is 95 to 100%.

same assay, conditions: post-emergence, 336 h, ZEAMX: maize, corn (Zea mays), crop, 140 g ai/ha, read-out: Visual Growth Reduction (%) 14 Days After Application, ZEAMX

**Q.** With `COC(=O)c1nc(-c2ccc(I)cc2F)nc(N)c1OC` [Compound 82] as the compound, how does the pest or weed control at 140 g/ha read?
**A.** Its pest or weed control at 140 g/ha is 95 to 100%.

test system: not given; test: not given; details: not given

**Q.** Which melting point does the source give for `COC(=O)c1nc(-c2ccc(I)cc2F)nc(N)c1OC` [Compound 82] here?
**A.** The melting point was 159 to 162 °C.
